Test results published in the NIST ThermoML archive (doi:10.1021/je500381c).

Test: xn = mol fraction of the nth substance listed
Settings: for mass density / viscosity: 100 kPa, Liquid; for mass density: Vibrating tube method; for surface tension liquid-gas: Drop volume

OCC1CCCCC1 [cyclohexylmethanol] + CC12CC3CC(C1)CC(C)(C3)C2
Settings	mass density [kg/m3]	surface tension liquid-gas [mN/m]	viscosity [mPa·s]
293.15 K, x1 = 0.1027	903.21	–	4.113
293.15 K, x1 = 0.1995	905.07	–	4.718
293.15 K, x1 = 0.3012	907.15	–	5.602
293.15 K, x1 = 0.4004	909.76	–	6.901
293.15 K, x1 = 0.4973	912.51	–	8.435
293.15 K, x1 = 0.6008	915.54	–	11.2
293.15 K, x1 = 0.7002	918.7	–	14.93
293.15 K, x1 = 0.7892	922.49	–	21.14
293.15 K, x1 = 0.9	925.92	–	28.69
293.15 K, x1 = 1	929.76	–	37.75
298.15 K, x1 = 0.1002	–	28.2	–
298.15 K, x1 = 0.1027	899.59	–	3.615
298.15 K, x1 = 0.1995	901.44	28.36	4.111
298.15 K, x1 = 0.2996	–	28.56	–
298.15 K, x1 = 0.3012	903.51	–	4.827
298.15 K, x1 = 0.4004	906.13	28.74	5.842
298.15 K, x1 = 0.4973	908.85	28.95	7.114
298.15 K, x1 = 0.6008	911.97	29.35	9.121
298.15 K, x1 = 0.7002	915.07	29.83	11.9
298.15 K, x1 = 0.7892	918.88	–	16.63
298.15 K, x1 = 0.7999	–	30.46	–
298.15 K, x1 = 0.9	922.36	31.33	22.11
298.15 K, x1 = 1	926.25	32.43	28.67
303.15 K, x1 = 0.1027	895.96	–	3.204
303.15 K, x1 = 0.1995	897.78	–	3.618
303.15 K, x1 = 0.3012	899.85	–	4.192
303.15 K, x1 = 0.4004	902.45	–	5.005
303.15 K, x1 = 0.4973	905.16	–	5.993
303.15 K, x1 = 0.6008	908.3	–	7.528
303.15 K, x1 = 0.7002	911.44	–	9.63
303.15 K, x1 = 0.7892	915.23	–	13.35
303.15 K, x1 = 0.9	918.75	–	17.36
303.15 K, x1 = 1	922.71	–	22.34
308.15 K, x1 = 0.1027	892.31	–	2.857
308.15 K, x1 = 0.1995	894.11	–	3.194
308.15 K, x1 = 0.3012	896.17	–	3.666
308.15 K, x1 = 0.4004	898.75	–	4.326
308.15 K, x1 = 0.4973	901.46	–	5.097
308.15 K, x1 = 0.6008	904.6	–	6.204
308.15 K, x1 = 0.7002	907.77	–	7.907
308.15 K, x1 = 0.7892	911.57	–	10.82
308.15 K, x1 = 0.9	915.12	–	13.92
308.15 K, x1 = 1	919.14	–	17.57
313.15 K, x1 = 0.1027	888.65	–	2.56
313.15 K, x1 = 0.1995	890.42	–	2.841
313.15 K, x1 = 0.3012	892.47	–	3.229
313.15 K, x1 = 0.4004	895.03	–	3.764
313.15 K, x1 = 0.4973	897.73	–	4.377
313.15 K, x1 = 0.6008	900.87	–	5.311
313.15 K, x1 = 0.7002	904.09	–	6.578
313.15 K, x1 = 0.7892	907.87	–	8.883
313.15 K, x1 = 0.9	911.45	–	11.3
313.15 K, x1 = 1	915.53	–	14.09
318.15 K, x1 = 0.1027	884.98	–	2.305
318.15 K, x1 = 0.1995	886.71	–	2.539
318.15 K, x1 = 0.3012	888.75	–	2.859
318.15 K, x1 = 0.4004	891.29	–	3.299
318.15 K, x1 = 0.4973	893.98	–	3.787
318.15 K, x1 = 0.6008	897.11	–	4.529
318.15 K, x1 = 0.7002	900.37	–	5.508
318.15 K, x1 = 0.7892	904.14	–	7.34
318.15 K, x1 = 0.9	907.74	–	9.262
318.15 K, x1 = 1	911.88	–	11.43
323.15 K, x1 = 0.1027	881.29	–	2.085
323.15 K, x1 = 0.1995	882.99	–	2.28
323.15 K, x1 = 0.3012	885.01	–	2.546
323.15 K, x1 = 0.4004	887.53	–	2.911
323.15 K, x1 = 0.4973	890.21	–	3.302
323.15 K, x1 = 0.6008	893.33	–	3.896
323.15 K, x1 = 0.7002	896.61	–	4.604
323.15 K, x1 = 0.7892	900.37	–	6.145
323.15 K, x1 = 0.9	904	–	7.642
323.15 K, x1 = 1	908.19	–	9.354
328.15 K, x1 = 0.1027	877.59	–	1.894
328.15 K, x1 = 0.1995	879.24	–	2.057
328.15 K, x1 = 0.3012	881.25	–	2.279
328.15 K, x1 = 0.4004	883.75	–	2.58
328.15 K, x1 = 0.4973	886.41	–	2.898
328.15 K, x1 = 0.6008	889.51	–	3.375
328.15 K, x1 = 0.7002	892.81	–	3.992
328.15 K, x1 = 0.7892	896.56	–	5.076
328.15 K, x1 = 0.9	900.21	–	6.342
328.15 K, x1 = 1	904.45	–	7.766
333.15 K, x1 = 0.1027	873.88	–	1.727
333.15 K, x1 = 0.1995	875.48	–	2.105
333.15 K, x1 = 0.3012	877.47	–	2.048
333.15 K, x1 = 0.4004	879.94	–	2.3
333.15 K, x1 = 0.4973	882.58	–	2.56
333.15 K, x1 = 0.6008	885.67	–	2.946
333.15 K, x1 = 0.7002	888.98	–	3.443
333.15 K, x1 = 0.7892	892.71	–	4.253
333.15 K, x1 = 0.9	896.38	–	5.984
333.15 K, x1 = 1	900.67	–	6.462
